One data set concerns SARS-CoV-2. Briefly: Antiviral activity against SARS-CoV-2 infected in African green monkey Vero cells assessed as inhibition of viral replication measured after 24 hrs post infection by qRT-PCR analysis. The note with it: Severe acute respiratory syndrome coronavirus 2, Vero. Format: functional, organism-based. (Real-time PCR tracks product formation cycle by cycle.)
Data set [1] is described as follows: Cytotoxicity against African green monkey Vero cells incubated for 3 days by automatic cell counting method. Format: toxicity, cell-based. The note with it: chlorocebus sabaeus, time 3 day.
In data set [2] the target is T1, Replicase polyprotein 1ab (Severe acute respiratory syndrome coronavirus 2, UniProt P0DTD1). Briefly: Binding affinity to SARS CoV-2 main protease assessed as inhibition constant.
Data set [3] deals with T1, Replicase polyprotein 1ab. Briefly: Inhibition of SARS CoV-2 main protease.

SMILES strings stand for the structures.

What is called EC50 is the concentration needed to bring the measured effect to its halfway point. The term CC50 denotes the concentration giving 50% cytotoxicity. The Ki is a dissociation constant, usually derived from enzyme kinetics or from competition with a known ligand. A word on the IC50: it is the concentration that gives 50% inhibition. Turning to `COc1cc(C)cc2c(-c3c(O)cc(O)c4c3C[C@@H](C)N[C@@H]4C)ccc(O)c12` (stereo in doubt; 1a) [KORUPENSAMINE A], in the data set with SARS-CoV-2, the EC50 stood at 4.23 µM. Also, the half-maximal cytotoxic concentration (CC50) at 72 h in data set [1] amounted to 35.1 µM. For the same compound, in data set [2], the Ki was 1.42 µM. This compound also gave an IC50 in data set [3] of 2.52 µM.

Take `COc1cc(C)cc2c(-c3c(O)cc(O)c4c3C[C@@H](C)N[C@@H]4C)ccc(O)c12` (stereo in doubt; 1b) [KORUPENSAMINE A]: the IC50 in data set [3] amounted to 71.9 µM.
